Assay results: ChEMBL document CHEMBL4507327 (2021); call rule not given here
pIC50: −log10 of the molar value.

How the values were obtained:
[1] = molecular target: L-type calcium channel, dihydropyridine site (Cav1.2 alpha-1C) (Homo sapiens, UniProt Q13936); test: Inhibition of Calcium Channel L-Type, Dihydropyridine at 10 µM in the Eurofins-Panlabs radioligand binding assay (Eurofins_assay_214600); set-up: ligand concentration 0.1 nM, non-specific ligand with concentration 1 µM Nitrendipine, incubation time 90 min, incubation temperature 25 °C; details: Wistar, rat, cerebral cortices of rats, probe [3H] Nitrendipine; compound concentration 10 uM; target entry is the homologue from another species
[2] = molecular target: Melatonin receptor type 1A (Homo sapiens) (UniProt P48039); test: Inhibition of Melatonin MT1 at 10 µM in the Eurofins-Panlabs radioligand binding assay (Eurofins_assay_251600); set-up: ligand concentration 0.05 nM; details: Compound concentration 10.0 uM
Melatonin receptor type 1A (Homo sapiens), sequence (P48039 whole entry): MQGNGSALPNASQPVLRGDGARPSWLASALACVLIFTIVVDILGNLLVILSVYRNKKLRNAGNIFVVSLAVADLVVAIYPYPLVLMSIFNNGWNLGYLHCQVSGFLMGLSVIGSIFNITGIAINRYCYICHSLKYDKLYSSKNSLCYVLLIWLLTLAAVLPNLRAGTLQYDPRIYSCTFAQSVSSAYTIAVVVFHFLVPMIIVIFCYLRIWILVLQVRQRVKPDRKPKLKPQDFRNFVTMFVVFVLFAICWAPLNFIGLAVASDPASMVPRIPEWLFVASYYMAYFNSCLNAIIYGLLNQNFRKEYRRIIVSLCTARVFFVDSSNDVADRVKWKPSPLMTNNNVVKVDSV

[3] = molecular target: ATP-sensitive inward rectifier potassium channel 11 (Cricetulus griseus) (UniProt A0A3L7HHE1); test: Inhibition of Potassium Channel [KATP] at 10 µM in the Eurofins-Panlabs radioligand binding assay (Eurofins_assay_265600); details: Cricetinae; Compound concentration 10.0 uM
[4] = molecular target: Ankyrin repeat and protein kinase domain-containing protein 1 (Homo sapiens, UniProt Q8NFD2); test: SgK288(ANK1LGRL) Takeda global kinase panel
[5] = molecular target: Serine/threonine-protein kinase B-raf (Homo sapiens, UniProt P15056); test: BRAF(BRAFLGY1) Takeda global kinase panel
[6] = molecular target: Cyclin-dependent kinase 13 (Homo sapiens, UniProt Q14004); test: CHED(CD13PHS1) Takeda global kinase panel
[7] = molecular target: Dual specificity protein kinase CLK2 (Homo sapiens, UniProt P49760); test: CLK2(CLK2LGF1) Takeda global kinase panel
[8] = molecular target: Macrophage colony-stimulating factor 1 receptor (Homo sapiens, UniProt P07333); test: FmS [CSFR(CSF1LGC1)] Takeda global kinase panel
[9] = molecular target: Casein kinase I isoform gamma-1 (Homo sapiens, UniProt Q9HCP0); test: CK1gamma1(C1G1LGI1) Takeda global kinase panel
[10] = molecular target: Eukaryotic translation initiation factor 2-alpha kinase 1 (Homo sapiens, UniProt Q9BQI3); test: HRI(EIK1CGQ1) Takeda global kinase panel
[11] = molecular target: Ephrin type-B receptor 4 (Homo sapiens, UniProt P54760); test: EphB4(EPB4LGY1) Takeda global kinase panel
[12] = molecular target: Tyrosine-protein kinase Fer (Homo sapiens, UniProt P16591); test: Fer(FER1LGY1) Takeda global kinase panel
[13] = molecular target: G protein-coupled receptor kinase 4 (Homo sapiens, UniProt P32298); test: GRK4(GRK4LGRI) Takeda global kinase panel
[14] = molecular target: Tyrosine-protein kinase HCK (Homo sapiens, UniProt P08631); test: HCK(HCK1LGF1) Takeda global kinase panel
Tyrosine-protein kinase HCK, sequence (P08631 whole entry): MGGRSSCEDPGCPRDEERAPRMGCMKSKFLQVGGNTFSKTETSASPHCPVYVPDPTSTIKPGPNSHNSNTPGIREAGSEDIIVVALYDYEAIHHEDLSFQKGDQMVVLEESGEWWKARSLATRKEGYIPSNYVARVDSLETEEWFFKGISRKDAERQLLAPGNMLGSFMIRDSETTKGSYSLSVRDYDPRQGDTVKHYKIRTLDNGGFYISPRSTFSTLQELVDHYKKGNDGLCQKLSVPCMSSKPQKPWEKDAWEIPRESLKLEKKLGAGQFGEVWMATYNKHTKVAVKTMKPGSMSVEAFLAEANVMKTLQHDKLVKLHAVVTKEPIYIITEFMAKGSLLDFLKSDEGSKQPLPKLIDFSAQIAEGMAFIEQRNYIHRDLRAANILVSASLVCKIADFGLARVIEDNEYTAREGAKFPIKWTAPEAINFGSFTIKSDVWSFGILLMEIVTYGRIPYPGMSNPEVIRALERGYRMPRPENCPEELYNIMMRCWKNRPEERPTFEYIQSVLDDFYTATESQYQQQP

[15] = molecular target: Interleukin-1 receptor-associated kinase 3 (Homo sapiens, UniProt Q9Y616); test: IRAK3(IRK3PFE1) Takeda global kinase panel
[16] = molecular target: LIM domain kinase 2 (Homo sapiens, UniProt P53671); test: LIMK2(LIM2LGV1) Takeda global kinase panel
[17] = molecular target: Serine/threonine-protein kinase MARK2 (Homo sapiens, UniProt Q7KZI7); test: MARK2(MAR2LGY1) Takeda global kinase panel
[18] = molecular target: Mixed lineage kinase domain-like protein (Homo sapiens, UniProt Q8NB16); test: MLKL(MLKLPHY1) Takeda global kinase panel
Mixed lineage kinase domain-like protein, sequence (Q8NB16 whole entry, the tested form may be a part): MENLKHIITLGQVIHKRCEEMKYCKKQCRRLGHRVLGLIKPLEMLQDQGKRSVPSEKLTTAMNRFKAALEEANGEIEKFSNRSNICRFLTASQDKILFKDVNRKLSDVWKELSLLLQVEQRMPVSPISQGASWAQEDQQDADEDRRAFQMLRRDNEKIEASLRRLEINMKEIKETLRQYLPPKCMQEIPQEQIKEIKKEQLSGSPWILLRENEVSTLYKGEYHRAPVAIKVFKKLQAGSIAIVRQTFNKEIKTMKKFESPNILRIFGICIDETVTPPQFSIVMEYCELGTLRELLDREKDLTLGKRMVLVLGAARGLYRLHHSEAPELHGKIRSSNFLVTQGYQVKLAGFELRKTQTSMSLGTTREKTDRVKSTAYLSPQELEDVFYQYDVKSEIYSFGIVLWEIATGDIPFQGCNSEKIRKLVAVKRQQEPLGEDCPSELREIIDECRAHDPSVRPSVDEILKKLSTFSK

[19] = molecular target: Serine/threonine-protein kinase Nek2 (Homo sapiens, UniProt P51955); test: Nek2(NEK2LHFA) Takeda global kinase panel
[20] = molecular target: Serine/threonine-protein kinase PAK 5 (Homo sapiens, UniProt Q9P286); test: PAK5(PAK7LGF1) Takeda global kinase panel
[21] = molecular target: PAS domain-containing serine/threonine-protein kinase (Homo sapiens, UniProt Q96RG2); test: PASK(PASKPHY1) Takeda global kinase panel
[22] = molecular target: Serine/threonine-protein kinase pim-2 (Homo sapiens, UniProt Q9P1W9); test: Pim2(PIM2LHY1) Takeda global kinase panel
Serine/threonine-protein kinase pim-2, sequence (Q9P1W9 whole entry): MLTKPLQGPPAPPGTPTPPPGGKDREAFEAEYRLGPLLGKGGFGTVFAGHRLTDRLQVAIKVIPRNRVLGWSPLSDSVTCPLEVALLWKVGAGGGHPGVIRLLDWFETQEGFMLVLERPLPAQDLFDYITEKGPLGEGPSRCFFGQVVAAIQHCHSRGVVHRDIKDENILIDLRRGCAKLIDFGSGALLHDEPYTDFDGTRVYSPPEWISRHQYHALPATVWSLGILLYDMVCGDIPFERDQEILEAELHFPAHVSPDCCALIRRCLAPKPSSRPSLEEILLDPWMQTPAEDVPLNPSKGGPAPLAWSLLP

[23] = molecular target: cGMP-dependent protein kinase 2 (Homo sapiens, UniProt Q13237); test: PKG2(PRG2LHY1) Takeda global kinase panel
[24] = molecular target: Ribosomal protein S6 kinase alpha-1 (Homo sapiens, UniProt Q15418); test: RSK1 [p90RSK(R6A2CGE1)] Takeda global kinase panel
[25] = molecular target: Ribosomal protein S6 kinase alpha-5 (Homo sapiens, UniProt O75582); test: MSK1(R6A5LGY1) Takeda global kinase panel
[26] = molecular target: Tyrosine-protein kinase Srms (Homo sapiens, UniProt Q9H3Y6); test: Srm(SRMSLGY1) Takeda global kinase panel
Tyrosine-protein kinase Srms, sequence (Q9H3Y6 whole entry): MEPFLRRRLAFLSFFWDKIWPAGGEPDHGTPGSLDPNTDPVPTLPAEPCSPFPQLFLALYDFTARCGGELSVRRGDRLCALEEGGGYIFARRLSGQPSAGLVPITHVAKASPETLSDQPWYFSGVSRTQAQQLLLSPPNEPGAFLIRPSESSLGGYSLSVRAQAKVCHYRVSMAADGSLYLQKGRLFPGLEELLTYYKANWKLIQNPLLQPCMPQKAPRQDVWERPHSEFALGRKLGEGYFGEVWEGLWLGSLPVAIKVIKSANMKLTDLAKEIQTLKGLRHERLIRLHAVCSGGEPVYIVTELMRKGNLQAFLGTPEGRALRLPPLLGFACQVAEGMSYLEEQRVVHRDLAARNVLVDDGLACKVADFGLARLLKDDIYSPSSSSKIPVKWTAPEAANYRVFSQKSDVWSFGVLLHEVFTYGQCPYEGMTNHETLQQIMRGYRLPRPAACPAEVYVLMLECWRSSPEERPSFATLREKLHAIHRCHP

[27] = molecular target: Serine/threonine-protein kinase 32A (Homo sapiens, UniProt Q8WU08); test: YANK1(S32APHY1) Takeda global kinase panel
[28] = molecular target: Tyrosine-protein kinase Tec (Homo sapiens, UniProt P42680); test: TEC(TEC1CGD1) Takeda global kinase panel
Tyrosine-protein kinase Tec, sequence (P42680 whole entry): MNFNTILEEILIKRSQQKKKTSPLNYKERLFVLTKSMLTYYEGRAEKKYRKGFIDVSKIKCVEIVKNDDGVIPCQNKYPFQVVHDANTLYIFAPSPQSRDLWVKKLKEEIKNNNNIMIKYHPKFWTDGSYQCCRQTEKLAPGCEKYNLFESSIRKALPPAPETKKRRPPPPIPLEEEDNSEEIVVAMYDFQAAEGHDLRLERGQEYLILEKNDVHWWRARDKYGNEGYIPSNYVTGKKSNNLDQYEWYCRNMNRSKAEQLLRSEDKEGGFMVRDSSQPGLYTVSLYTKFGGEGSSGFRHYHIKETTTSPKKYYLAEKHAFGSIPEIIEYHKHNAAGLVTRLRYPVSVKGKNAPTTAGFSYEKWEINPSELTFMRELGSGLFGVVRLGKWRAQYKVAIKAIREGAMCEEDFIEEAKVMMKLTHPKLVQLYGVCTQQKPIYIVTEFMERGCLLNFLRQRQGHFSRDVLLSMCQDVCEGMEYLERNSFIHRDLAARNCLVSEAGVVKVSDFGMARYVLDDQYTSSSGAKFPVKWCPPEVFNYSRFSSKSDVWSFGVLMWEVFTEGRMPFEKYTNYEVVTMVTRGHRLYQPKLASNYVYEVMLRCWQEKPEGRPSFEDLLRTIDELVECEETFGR

[29] = molecular target: Activated CDC42 kinase 1 (Homo sapiens, UniProt Q07912); test: Ack(TNK2LGF1) Takeda global kinase panel
[30] = molecular target: Non-receptor tyrosine-protein kinase TYK2 (Homo sapiens, UniProt P29597); test: Tyk2(TYK2LGF1) Takeda global kinase panel
[31] = molecular target: Phosphatidylinositol 4,5-bisphosphate 3-kinase catalytic subunit beta isoform (Homo sapiens, UniProt P42338); test: PIK3CB(PI3BCGRK) Takeda global kinase panel
Phosphatidylinositol 4,5-bisphosphate 3-kinase catalytic subunit beta isoform, sequence (P42338 whole entry, canonical isoform): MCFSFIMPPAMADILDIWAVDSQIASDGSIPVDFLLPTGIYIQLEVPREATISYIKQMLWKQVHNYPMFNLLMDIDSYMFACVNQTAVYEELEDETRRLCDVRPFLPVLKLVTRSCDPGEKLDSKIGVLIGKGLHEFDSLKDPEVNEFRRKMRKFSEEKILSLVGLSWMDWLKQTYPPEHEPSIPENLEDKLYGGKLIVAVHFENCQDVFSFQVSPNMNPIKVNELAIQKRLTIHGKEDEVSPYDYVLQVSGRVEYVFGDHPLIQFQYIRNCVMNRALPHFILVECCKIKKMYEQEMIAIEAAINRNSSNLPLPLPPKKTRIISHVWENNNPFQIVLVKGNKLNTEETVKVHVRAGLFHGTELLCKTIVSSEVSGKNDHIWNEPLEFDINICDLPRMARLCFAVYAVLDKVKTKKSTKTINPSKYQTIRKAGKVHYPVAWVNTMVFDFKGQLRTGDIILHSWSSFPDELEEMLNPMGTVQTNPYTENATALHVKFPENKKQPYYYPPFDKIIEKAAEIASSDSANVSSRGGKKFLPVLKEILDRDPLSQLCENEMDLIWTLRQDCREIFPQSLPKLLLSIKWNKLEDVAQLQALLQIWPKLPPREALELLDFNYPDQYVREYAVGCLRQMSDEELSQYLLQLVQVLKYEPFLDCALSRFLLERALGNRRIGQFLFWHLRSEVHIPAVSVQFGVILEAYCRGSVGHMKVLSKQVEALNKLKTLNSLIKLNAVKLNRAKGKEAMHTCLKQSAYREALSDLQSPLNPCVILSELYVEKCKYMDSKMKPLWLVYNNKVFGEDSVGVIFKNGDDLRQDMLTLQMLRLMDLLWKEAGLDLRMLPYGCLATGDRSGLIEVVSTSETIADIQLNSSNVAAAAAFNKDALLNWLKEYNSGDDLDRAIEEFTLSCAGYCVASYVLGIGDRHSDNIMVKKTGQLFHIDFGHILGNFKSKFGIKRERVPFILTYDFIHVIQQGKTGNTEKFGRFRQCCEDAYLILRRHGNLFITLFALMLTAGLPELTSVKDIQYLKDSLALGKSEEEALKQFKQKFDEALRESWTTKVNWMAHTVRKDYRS

[32] = molecular target: Bromodomain-containing protein 4 (Homo sapiens, UniProt O60885); test: BRD4(BRD4LGRC) Takeda global kinase panel
[33] = molecular target: B2 bradykinin receptor (Homo sapiens) (UniProt P30411); details: Compound concentration 10.0 uM
B2 bradykinin receptor (Homo sapiens), sequence (P30411 whole entry): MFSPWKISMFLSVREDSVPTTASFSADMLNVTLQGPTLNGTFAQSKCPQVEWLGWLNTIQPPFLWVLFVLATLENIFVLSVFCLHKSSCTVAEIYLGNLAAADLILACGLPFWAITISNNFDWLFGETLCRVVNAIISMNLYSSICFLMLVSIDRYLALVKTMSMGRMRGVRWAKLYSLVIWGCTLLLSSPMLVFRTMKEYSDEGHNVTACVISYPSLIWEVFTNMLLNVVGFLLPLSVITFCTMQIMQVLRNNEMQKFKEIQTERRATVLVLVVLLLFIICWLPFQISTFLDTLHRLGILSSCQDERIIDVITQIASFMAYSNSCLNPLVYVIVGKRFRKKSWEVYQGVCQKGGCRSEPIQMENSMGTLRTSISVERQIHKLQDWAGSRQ

[34] = molecular target: Endothelin receptor type B (Homo sapiens) (UniProt P24530); details: Compound concentration 10.0 uM
[35] = molecular target: Histamine H1 receptor (Homo sapiens) (UniProt P35367); details: Compound concentration 10.0 uM
[36] = molecular target: T1, Muscarinic acetylcholine receptor M1 (Homo sapiens) (UniProt P11229); details: Compound concentration 10.0 uM
T1 sequence (whole entry): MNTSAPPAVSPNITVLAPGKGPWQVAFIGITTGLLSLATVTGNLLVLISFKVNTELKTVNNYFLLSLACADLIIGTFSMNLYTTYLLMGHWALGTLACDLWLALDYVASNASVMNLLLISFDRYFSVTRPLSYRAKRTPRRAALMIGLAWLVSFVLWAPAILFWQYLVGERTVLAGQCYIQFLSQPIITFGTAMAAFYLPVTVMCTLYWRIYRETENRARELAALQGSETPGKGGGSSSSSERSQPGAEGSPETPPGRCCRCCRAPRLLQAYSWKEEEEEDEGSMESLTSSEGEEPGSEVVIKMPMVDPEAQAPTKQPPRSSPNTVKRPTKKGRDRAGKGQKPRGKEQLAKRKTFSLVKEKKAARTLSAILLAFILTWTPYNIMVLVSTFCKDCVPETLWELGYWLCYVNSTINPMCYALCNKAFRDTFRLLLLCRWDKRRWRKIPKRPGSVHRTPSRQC

[37] = molecular target: Sodium-dependent dopamine transporter (Homo sapiens) (UniProt Q01959); details: Compound concentration 10.0 uM
Sodium-dependent dopamine transporter (Homo sapiens), sequence (Q01959 whole entry): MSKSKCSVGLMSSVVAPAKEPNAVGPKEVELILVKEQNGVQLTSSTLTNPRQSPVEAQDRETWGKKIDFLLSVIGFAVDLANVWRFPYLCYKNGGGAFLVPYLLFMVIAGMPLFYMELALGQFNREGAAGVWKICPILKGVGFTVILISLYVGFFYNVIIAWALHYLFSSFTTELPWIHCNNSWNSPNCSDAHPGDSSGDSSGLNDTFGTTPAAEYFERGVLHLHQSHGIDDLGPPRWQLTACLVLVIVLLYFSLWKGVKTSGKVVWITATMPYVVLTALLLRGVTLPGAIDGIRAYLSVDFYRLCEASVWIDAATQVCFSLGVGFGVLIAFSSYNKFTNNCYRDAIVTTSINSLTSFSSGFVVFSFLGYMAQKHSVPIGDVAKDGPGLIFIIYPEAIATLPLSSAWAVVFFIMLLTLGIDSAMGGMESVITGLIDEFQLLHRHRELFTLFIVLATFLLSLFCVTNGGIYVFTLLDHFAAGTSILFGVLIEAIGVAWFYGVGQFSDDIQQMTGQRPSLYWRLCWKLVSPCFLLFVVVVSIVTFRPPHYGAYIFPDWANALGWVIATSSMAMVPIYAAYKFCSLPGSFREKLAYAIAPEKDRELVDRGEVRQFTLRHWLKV

Structure (SMILES)	inhibition at 90 min, 10 µM [1]	inhibition [2] [%]	inhibition [3] [%]	pIC50 [4]	pIC50 [5]	pIC50 [6]	pIC50 [7]	pIC50 [8]	pIC50 [9]	pIC50 [10]	pIC50 [11]	pIC50 [12]	pIC50 [13]	pIC50 [14]	pIC50 [15]	pIC50 [16]	pIC50 [17]	pIC50 [18]	pIC50 [19]	pIC50 [20]	also measured
CN1C(=O)[C@@H](N2CCc3cn(Cc4ccccc4)nc3C2=O)COc2ccccc21 [TP-030-1]	-18% (not active)	45	6	6.00	6.00	6.00	6.00	6.00	6.00	6.00	6.00	6.00	6.00	6.00	6.00	6.00	6.00	6.00	6.00	6.00	pIC50 [21]: 6.00; pIC50 [22]: 6.00; pIC50 [23]: 6.00; pIC50 [24]: 6.00; pIC50 [25]: 6.00; pIC50 [26]: 6.00; pIC50 [27]: 6.00; pIC50 [28]: 6.00; pIC50 [29]: 6.00; pIC50 [30]: 6.00; pIC50 [31]: 6.00; pIC50 [32]: 6.00; inhibition [33]: 4%; inhibition [34]: 0%; inhibition [35]: 3%; inhibition [36]: 0%; inhibition [37]: 29%
CN1C(=O)[C@@H](N2CCc3cn(CC4CCS(=O)(=O)CC4)nc3C2=O)COc2ccccc21 [TP-030n]	-6% (not active)	9	5	6.00	6.00	6.00	6.00	6.00	6.00	6.00	6.00	6.00	6.00	6.00	6.00	6.00	6.00	6.00	6.00	6.00	pIC50 [21]: 6.00; pIC50 [22]: 6.00; pIC50 [23]: 6.00; pIC50 [24]: 6.00; pIC50 [25]: 6.00; pIC50 [26]: 6.00; pIC50 [27]: 6.00; pIC50 [28]: 6.00; pIC50 [29]: 6.00; pIC50 [30]: 6.00; pIC50 [31]: 6.00; pIC50 [32]: 6.00; inhibition [33]: -4%; inhibition [34]: -3%; inhibition [35]: 8%; inhibition [36]: 2%; inhibition [37]: 10%
